From patent publication US8933067B2, “Pyrido and pyrimidopyrimidine derivatives as anti-profilerative agents” (Janssen Pharmaceutica N.V., priority 2003, dated 2015)

Tests used:
[1] = target: T1, EGFR-kinase domain (Homo sapiens, UniProt P00533); experiment: In vitro inhibition of EGFR (Flash Plate or glass-fiber filter kinase assay); type: biochemical; details: pIC50; read-out: In vitro kinase activity assay.(C1): IC50 (converted)
T1 construct: 0.35 μg/well poly(GT)biotin and 0.5 μg EGFR-kinase domain/well
Description: The in vitro inhibition of EGFR was assessed using either the Flash Plate technology or the glass-fiber filter technology as described by Davies, S. P. et al., Biochem J. (2000), 351; p. 95-105. The Flash Plate technology is generally described by B. A. Brown et al. in High Throughput Screening (1997), p. 317-328. Editor(s): Devlin, John P. Publisher: Dekker, New York, N.Y.
In the Flash Plate EGFR kinase reaction assay, a kinase substrate consisting of biotinylated poly(L-glutamic acid-L-tyrosine) (poly(GT)biotin), is incubated with the aforementioned protein in the presence of (^33P) radiolabeled ATP. (^33P) phosphorylation of the substrate is subsequently measured as light energy emitted using a streptavidin-coated Flash Plate (PerkinElmer Life Sciences) by trapping and quantifying the binding of the biotin tagged and radiolabeled substrate.
The EGFR kinase reaction is performed at 30° C. for 60 minutes in a 96-well microtiter FlashPlate (PerkinElmer Life Sciences). For each of the tested compounds a full dose response 1.10^−6M to 1.10^−10M has been performed. IRESSA® and Tarceva™ (erlotinib) were used as reference compounds. The 100 μl reaction volume contains 54.5 mM TrisHCl pH 8.0, 10 mM MgCl2, 100 μM Na3VO4, 5.0 μM unlabeled ATP, 1 mM DTT, 0.009% BSA, 0.8 μCi AT^33P, 0.35 μg/well poly(GT)biotin and 0.5 μg EGFR-kinase domain/well.
The reaction is stopped by aspirating the reaction mixture and washing the plate 3× with 200 μl wash/stop buffer (PBS+100 mM EDTA). After the final wash step 200 μl of wash/stop buffer was added to each well and the amount of phosphorylated (^33P) Poly(GT)biotin determined by counting (30 sec/well) in a microtiterplate scintillation counter.
In the glass-fiber filter technology EGFR kinase reaction assay, a kinase substrate consisting of poly(L-glutamic acid-L-tyrosine) (poly(GT)), is incubated with the aforementioned protein in the presence of (^33P) radiolabeled ATP. (^33P) Phosporylation of the substrate is subsequently measured as radioactivity bound on a glassfiber-filter.
The EGFR kinase reaction is performed at 25° C. for 10 minutes in a 96-well microtiterplate. For each of the tested compounds a full dose response 1.10^−6M to 1.10^−10M has been performed. IRESSA® and Tarceva™ (erlotinib) were used as reference compounds. The 25 μl reaction volume contains 60 mM TrisHCl pH 7.5, 3 mM MgCl2, 3 mM Mn Cl2, 3 μM Na3VO4, 50 μg/ml PEG20000, 5.0 μM unlabeled ATP, 1 mM DTT, 0.1 μCi AT^33P, 62.5 ng/well poly(GT) and 0.5 μg EGFR-kinase domain/well.
The reaction is stopped by adding 5 μl of a 3% phosphoric acid solution. 10 μl of the reaction mixture is then spotted onto a Filtermat A filter (Wallac) and washed 3 times for 5 min. in 75 mM phosphoric acid and 1 time for 5 min. in methanol prior to drying and quantification on the Typhoon (Amersham) using a LE phosphorage storage screen.

[2] = test system: SKOV3 cells; experiment: Serum starved, EGF stimulated proliferation assay on ovarian carcinoma SKOV3 cells (MTT); type: cell-based; details: Homo sapiens, SK-OV-3; EGF 100 ng/ml, 72 hours, serum free; pIC50; read-out: SKOV3 cell (C2): IC50 (converted)
Description: The ovarian carcinoma cell line (SKOV3) was used in an epidermal growth factor stimulated cell proliferation assay, to assess the inhibitory effect of the compounds on EGF in whole cells.
In a first step the SKOV3 cells were incubated for 24 hours in the presence of 10% FCS serum. In the second step the cells were incubated with the compounds to be tested in a serum free condition (37° C. and 5% (v/v) CO2) and subsequently stimulated for 72 hours with EGF at a final concentration of 100 ng/ml. The effect of the compounds on the EGF stimulation was finally assessed in a standard MTT cell viability assay.

T1 sequence (P00533 712-979 limits assumed): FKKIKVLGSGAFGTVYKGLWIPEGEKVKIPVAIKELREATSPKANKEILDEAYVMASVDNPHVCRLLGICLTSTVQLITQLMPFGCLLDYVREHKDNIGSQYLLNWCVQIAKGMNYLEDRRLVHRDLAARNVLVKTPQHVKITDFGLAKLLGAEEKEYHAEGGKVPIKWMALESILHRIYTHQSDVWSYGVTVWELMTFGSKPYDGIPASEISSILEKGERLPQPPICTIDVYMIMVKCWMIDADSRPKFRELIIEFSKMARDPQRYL

Compound | IC50 [1] [nM] | IC50 [2] [nM] | melting point [°C]
OCCCCNc1ccc2ncnc(Nc3cc(Cl)ccc3O)c2n1 [Intermediate 3, phenol, 4-chloro-2-[[6-[(4-hydroxybutyl)amino]pyrido[3,2-d]pyrimidin-4-yl]amino]-] | 3.98 | 794 | –
Clc1ccc2c(c1)Nc1ncnc3ccc(nc13)NCCCCCCO2 [Compound 1, 7H,19H-4,6-ethanediylidenepyrimido[4,5-b][13,1,4,6]benzoxatriazacyclopentadecine, 17-chloro-8,9,10,11,12,13-hexahydro-] | 5.01 | 589 | –
Clc1ccc2c(c1)Nc1ncnc3cnc(nc13)NCCCCCCO2 [Compound 2, 6,4-(nitrilometheno)pyrimido[4,5-b][13,1,4,6]benzoxatriazacyclopentadecine, 17-chloro-7,8,9,10,11,12,13,19-octahydro-] | 3.16 | > 10000 | > 260
OCCCCCCNc1ncc2ncnc(Nc3cc(Cl)ccc3O)c2n1 [Intermediate 6, phenol, 4-chloro-2-[[6-[(6-hydroxyhexyl)amino]pyrimido[5,4-d]pyrimidin-4-yl]amino]-] | 3.98 | 1000 | –
OCCCCCCNc1ccc2ncnc(Nc3cc(Cl)ccc3O)c2n1 [Intermediate 2, phenol, 4-chloro-2-[[6-[(6-hydroxyhexyl)amino]pyrido[3,2-d]pyrimidin-4-yl]amino]-] | 6.31 | 3160 | –
OCCCCCNc1ccc2ncnc(Nc3cc(Cl)ccc3O)c2n1 [Intermediate 4, phenol, 4-chloro-2-[[6-[(5-hydroxypentyl)amino]pyrido[3,2-d]pyrimidin-4-yl]amino]-] | 5.01 | 1580 | –
